Entries after “also recorded” stand apart in the source; their conditions may differ.
Columns and labels:
TNFRI = biological target: T1, TNFRI (Homo sapiens, UniProt P19438); settings: target TNFRI, literature; cited from earlier work
T1 sequence (P19438 30-455): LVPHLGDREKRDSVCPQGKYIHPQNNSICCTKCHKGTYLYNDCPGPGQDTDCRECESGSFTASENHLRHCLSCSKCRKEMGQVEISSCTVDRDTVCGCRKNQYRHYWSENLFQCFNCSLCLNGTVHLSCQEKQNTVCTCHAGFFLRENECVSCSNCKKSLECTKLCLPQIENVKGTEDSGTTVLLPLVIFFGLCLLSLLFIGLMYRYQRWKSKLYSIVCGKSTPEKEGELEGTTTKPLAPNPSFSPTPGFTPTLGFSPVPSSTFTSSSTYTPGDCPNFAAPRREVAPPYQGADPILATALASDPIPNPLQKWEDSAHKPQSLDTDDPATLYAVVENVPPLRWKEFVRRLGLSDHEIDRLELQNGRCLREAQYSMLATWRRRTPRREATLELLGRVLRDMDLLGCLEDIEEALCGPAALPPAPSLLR

TNF-α = TNF-α (Homo sapiens, UniProt P01375); settings: target TNF-α, literature; cited from earlier work
[1] = tested on: murine fibrosarcoma cell line L929; test: Cell viability (MTT) assay in L929 cells; format: cell-based; settings: L929, up to 200 μM, 24 hours
Procedure: (§1) FIG. 8A is a graph showing the effects of TIM1 and a solvent thereof, DMSO, on the viability of human dermal fibroblasts, in which cells (10^4/well) were treated with DMSO at 3 different concentrations (0.5, 1, and 2%) and TIM1 at 8 different concentrations (1, 3.125, 6.25, 12.5, 25, 50, 100, and 200 μM) for 24 hours, and the cell viability was monitored by an MTT assay. FIG. 8B is a graph showing the effect of TIM1 on the viability of a mouse fibrosarcoma cell line [L929 (1.5×10^4/well)] under the same conditions as in FIG. 8A. All experiments were independently performed 4 times, and mean±SEM of the independent experiments was calculated using a two-tailed paired Student's t-test (*P<0.05).
In order to measure cell viability, a colorimetric […] (MTT) assay (Sigma-Aldrich Co.) was performed. HDFs were seeded at a density of 10^4/well in 96-well plates (BD Biosciences, San Jose, CA, USA), grown overnight, and then treated with a test compound at various concentrations for 24 hours. The next day, the medium was replaced with a medium (100 μl/well) containing a 10% MTT solution, followed by incubated at 37° C. for 3 hours. […] Thereafter, the plates were read at a wavelength of 540 nm using a microplate spectrophotometer system (Molecular Devices, Silicon Valley, California).

[2] = biological target: T2, recombinant human TNF-α (rhTNF-α) (Homo sapiens, UniProt P01375); test: TNF-α-mediated hIL-8 secretion in HDFs (ELISA); format: cell-based; settings: 24 hours
T2 construct: purchased Miltenyi Biotec
Procedure: (§2) HDFs were seeded at a density of 10^4/well in a 96-well plate (BD Biosciences) and grown overnight. The cells were treated for 24 hours with a 1-hour-pre-incubated mixture of rhTNF-α and test compounds. IL-8 secretion was assessed by a human IL-8 uncoated ELISA kit (eBioscience, Inc., San Diego, CA, USA), and IL-6 secretion level was assessed by a human IL-6 ELISA MAX™ Deluxe kit (BioLegend, San Diego, CA, USA). The microtiter plates were then analyzed at an appropriate wavelength using a microplate spectrophotometer system (Molecular Devices, Silicon Valley, California).

[3] = biological target: T2, recombinant human TNF-α (rhTNF-α); test: TNF-α-mediated hIL-6 secretion in HDFs (ELISA); format: cell-based; settings: 24 hours
Procedure: as §2

[4] = biological target: T2, recombinant human TNF-α (rhTNF-α); test: Cell death attenuation assay, act-D-sensitized HDFs with rhTNF-α; format: cell-based
Procedure: (§3) HDFs (10^4/well) and L929 cell lines (1.5×10^4/well) were seeded in 96-well plates and grown overnight under appropriate conditions. The next day, HDFs and L929 cells were pretreated with 1 μg/ml act-D and 0.1 μg/ml act-D, respectively, followed by incubated for 30 minutes. Thereafter, a 1-hour-preincubated mixture of 10 ng/ml rhTNFα with test compounds or 1 ng/ml rmTNFα with test compounds, was applied to HDFs and L929 cells, respectively. The cells were incubated for 24 hours post-treatment, and survival was measured by the MTT assay. Cell viability was calculated with reference to the no-treatment control group. The obtained values were normalized with respect to the act-D treatment group and then used to calculate death attenuation (%) rate using the following equation: […]

[5] = biological target: T3, recombinant human TNF-α homotrimer (Homo sapiens, UniProt P01375); test: Dissociation of TNF-α trimerization assembly (cross-linking, Western blot), human; format: biochemical; settings: cross-linked with BS3, Western blot
T3 construct: purchased Miltenyi Biotec
Procedure: (§4) Inhibitors were incubated with 100 ng of recombinant TNF-α at 37° C. for 1 hour and then cross-linked with 4.8 mM BS3 (Thermo Fisher Scientific, Inc.) at room temperature for 30 minutes. Then, a 1/10 volume of 1 M Tris-HCl (pH 7.5) was added to stop the reaction. Thereafter, samples were separated by SDS-PAGE, followed by Western blotting with anti-TNF-α antibody (Cell Signaling Technology Inc.).

[6] = tested on: TNF-α-dependent signaling pathways (NF-κB, MAPKs, caspases 3 and 8); test: Western blot of TNF-α-dependent signaling pathways in L929 cells; format: cell-based, mouse
Procedure: Total protein was extracted from the treated cells using an M-PER mammalian protein extraction reagent (Thermo Fisher Scientific, Inc.). The cell pellets were dissolved in a mixture of M-PER with protease and phosphatase inhibitor cocktail (Thermo Fisher Scientific, Inc.) at 4° C. for 1 minute, and the lysate thus obtained was centrifuged at 16,000×g and 4° C. for 10 minutes. The supernatant containing the protein was collected in a separate Eppendorf tube, and a BCA assay (Sigma-Aldrich) was performed for protein quantification. 20 Hg of a protein sample was placed in a 10-12% polyacrylamide gel (containing SDS), and the separated protein was transferred to a nitrocellulose membrane (HYBOND ECL™; Amersham Pharmacia Biotech Inc, Piscataway, New Jersey) of a mini-PROTEAN tetra cell and mini trans-blot electrophoretic transfer cell system (Bio-Rad Laboratories). Membrane blocking was performed with 5% nonfat dried milk for 1 hour. The membrane was subjected to immunoblotting through gentle shaking overnight at a temperature of 4° C. with certain primary antibodies, i.e. antibodies to (phospho-)p-p65, p-JNK, JNK, p-ERK, ERK, cleaved caspase 3 (Cell Signaling Technology Inc., Danvers, MA, USA), p-p38, caspase 8, and β-actin (Santa Cruz Biotechnology Inc., Dallas, TX, USA). The next day, after rigorous washing with PBST, the membrane was incubated with peroxidase-conjugated anti-mouse or anti-rabbit IgG antibodies at room temperature for 2 hours. Protein was detected using a SuperSignal West Pico ECL solution (Thermo Fisher Scientific, Inc.) and visualized with a CHEMIDOC™ Touch Imaging System (Bio-Rad Laboratories).

[7] = biological target: T4, recombinant mouse TNF-α (rmTNF-α) (Mus musculus, UniProt P06804); test: Cell death attenuation assay, act-D-sensitized L929 cells with rmTNF-α; format: cell-based
T4 construct: purchased Miltenyi Biotec
T4 sequence (P06804 80-235 limits assumed): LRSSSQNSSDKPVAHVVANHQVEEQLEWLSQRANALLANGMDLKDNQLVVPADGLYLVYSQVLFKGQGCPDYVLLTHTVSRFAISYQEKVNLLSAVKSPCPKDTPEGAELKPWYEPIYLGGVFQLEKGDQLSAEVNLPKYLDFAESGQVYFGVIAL
Procedure: as §3

[8] = biological target: T5, recombinant mouse TNF-α homotrimer (Mus musculus, UniProt P06804); test: Dissociation of TNF-α trimerization assembly (cross-linking, Western blot), mouse; format: biochemical; settings: cross-linked with BS3, Western blot
T5 construct: purchased Miltenyi Biotec
T5 sequence (P06804 80-235 limits assumed): T4 sequence (P06804 80-235 limits assumed)
Procedure: as §4

[9] = tested on: human dermal fibroblasts (HDFs); test: Cell viability (MTT) assay in human dermal fibroblasts; format: cell-based; settings: 24 hours
Procedure: as §1
In order to measure cell viability, a colorimetric […] (MTT) assay (Sigma-Aldrich Co.) was performed. HDFs were seeded at a density of 10^4/well in 96-well plates (BD Biosciences, San Jose, CA, USA), grown overnight, and then treated with a test compound at various concentrations for 24 hours. The next day, the medium was replaced with a medium (100 μl/well) containing a 10% MTT solution, followed by incubated at 37° C. for 3 hours. This solution was replaced with DMSO (100 μl/well), and the plates were incubated at room temperature for 30 minutes. Thereafter, the plates were read at a wavelength of 540 nm using a microplate spectrophotometer system (Molecular Devices, Silicon Valley, California).

[10] = HDFs, rhTNF-α 1 ng/ml pre-incubated 1 hour
[11] = L929, 20 μM, rmTNF-α 1 ng/ml, 5-30 minutes

T2 sequence (P01375 77-233 limits assumed): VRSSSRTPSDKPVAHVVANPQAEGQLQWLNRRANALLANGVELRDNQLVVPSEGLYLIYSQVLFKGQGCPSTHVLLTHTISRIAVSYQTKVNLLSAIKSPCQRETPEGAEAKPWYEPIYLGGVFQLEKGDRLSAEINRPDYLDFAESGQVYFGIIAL
T3 sequence (P01375 77-233 limits assumed): as above
TNF-α, sequence (P01375 77-233 limits assumed, species assumed): as the sequence (P01375 77-233 limits assumed) above

Physcion-8-O-β-D-monoglucoside
Kd (TNFRI): 0.376 µM

O=C1Sc2c(S(=O)(=O)Nc3ccc(O)cc3)cc(S(=O)(=O)Nc3ccc(O)cc3)c3cccc1c23 [AP-906/41640035]
IC50 (TNF-α): 14 µM

C#Cc1cccc(Nc2nc(-c3cc(C)n(NC(=O)c4nn(C)c(=O)c5ccccc45)c3C)cs2)c1 [TIM1, N-(3-{2-[(3-ethynylphenyl)amino]-1,3-thiazol-4-yl}-2,5-dimethylpyrrol-1-yl)-3-methyl-4-oxophthalazine-1-carboxamide]
lethality at increasing concentrations [1]: no lethality
inhibition of TNF-α-mediated hIL-8 secretion ([2]; HDFs, 1, 10, 50 and 100 μM): inhibited TNF-α-mediated secretion
IC50 [2, 10]: 16.7 µM
inhibition of TNF-α-mediated hIL-6 secretion ([3]; HDFs, 1, 10, 50 and 100 μM): inhibited TNF-α-mediated secretion
IC50 [3, 10]: 6.3 µM
IC50 [4]: 26.2 µM
attenuation of TNF-α-induced apoptosis ([4]; act-D-sensitized HDFs, rhTNF-α 10 ng/ml, 1-100 μM): Significant attenuation
formation of functional homotrimers, rhTNF-α [5]: inhibited the formation of functional homotrimers
TNF-α-mediated phosphorylation of the p65 subunit (NF-κB) [6, 11]: attenuated
phosphorylation of MAPKs (p38 MAPK, JNK, ERK) [6, 11]: inhibited
formation of cleaved active caspases 3 and 8 ([6]; L929, TNF-α stimulation): blocked
IC50 [7]: 24.9 µM
inhibition of rmTNF-α-mediated proapoptotic pathway / cell death ([7]; act-D-sensitized L929, rmTNF-α 1 ng/ml, 1-100 μM): inhibited the rmTNF-α-mediated proapoptotic pathway in L929 cells in a concentration-dependent manner
formation of functional homotrimers, rmTNF-α [8]: inhibited the formation of functional homotrimers
lethality / cytotoxicity at increasing concentrations ([9]; HDF, up to 200 μM): no lethality; also recorded: does not show cytotoxicity up to 200 μM
cytotoxicity (cell viability, MTT assay) ([9]; HDFs): no cytotoxicity up to a concentration of 50 μM; also recorded: did not exhibit cytotoxicity even at high concentrations (up to 100 μM)
